Measured values from article PMC5491903, “The Selective Phosphoinoside-3-Kinase p110δ Inhibitor IPI-3063 Potently Suppresses B Cell Survival, Proliferation, and Differentiation” (Frontiers in Immunology, 2017).

How the values were obtained:
Format in all cases: cell-based
human B cells = test: human B cell proliferation (CFSE); conditions: CD40L + anti-human IgM/IgG + hIL-2 + hIL-21, 120 h
Protocol: We also tested the effects of these inhibitors on human B cell proliferation stimulated with human CD40L + anti-human IgM/IgG + hIL-2 + hIL-21. We stimulated CFSE-stained human B cells for 120 h in the presence of GDC-0941, IPI-3063, IPI-443, or AS-252424 at various concentrations. […] IPI-443 caused a dose-dependent decrease in proliferation, whereas AS-252424 had no effect.
(A–C) Purified human B cells were pretreated with inhibitors for 30 min, then stimulated with human CD40L + anti-human IgM/IgG + human IL-2 + human IL-21 for 120 h. Concentrations used were 1 nM, 10 nM, 100 nM, and 1 µM for IPI-443, and 0.1, 1, 10, and 100 nM for IPI-3063. AS252424 concentrations were 100 nM, 300 nM, and 1 µM, and GDC-0941 was at 500 nM. Total numbers and percent divided were determined by the number of CD19^+7AAD^−CFSE^lo cells. Samples were collected by time (*P < 0.05, **P < 0.001, ***P < 0.0001 one-way ANOVA with Newman–Keuls multiple comparison test).
Peripheral blood from normal volunteers was obtained through an Institutional Review Board-approved protocol. Peripheral blood mononuclear cells (PBMCs) were first purified from blood by density gradient centrifugation using Ficoll-Paque. […] B-cell purity was increased from 4% to >70% as measured by FACS analysis (FACSCalibur and CellQuest software; BD Biosciences) using anti-CD19 PE conjugated antibody (eBioscience). […]

mouse primary B cells = test: mouse B cell antibody class switching to IgG1; conditions: αCD40 + IL-4, 96 h
Text: Studies with p110δ inhibitors have shown that low PI3K signaling in B cells promotes antibody class switch recombination (CSR) and decreases differentiation into plasmablasts that secrete low-affinity IgM ([18], [19]). Activation of mouse primary B cells with αCD40 + IL-4 or LPS + IL-4 both induce IgG1 class switching while treatment with LPS alone induces the plasmablast differentiation fate (Figure 5A). In B cells stimulated with αCD40 + IL-4, IPI-3063 increased the percentage of B220^+ cells switching to IgG1 starting at 1 nM and approached the effect of GDC-0941 (Figure 5B).
Figure 5 IPI-3063 potently […] mouse B cell antibody switching and inhibits plasmablast differentiation. Purified B cells were pretreated with inhibitors, then stimulated with αCD40 + IL-4 (B) or LPS + IL-4 (C) for 96 h to induce switching to IgG1 or LPS (D) for 72 h to induce plasmablast differentiation. Class switching to IgG1 was measured by the 7AAD^−CFSE^loB220^+IgG1^+ cells [(A), upper panels]. Plasmablast percentages were calculated by % 7AAD^−CFSE^loCD138^+B220^lo population [(A), lower]. Supernatant was harvested (E) for IgM ELISA. […]
(§1) Mouse splenic B cells were purified by negative selection (eBioscience Magnisort Mouse B cell enrichment kit). B-cell purity was >95% as measured by FACS analysis (FACSCalibur and CellQuest software; BD Biosciences) using anti-B220 antibody (BioLegend). […]

[1] = tested on: LPS-stimulated mouse B cells; test: mouse plasmablast differentiation (CD138+B220lo); conditions: 72 h
Protocol: Figure 5 IPI-3063 potently […] mouse B cell antibody switching and inhibits plasmablast differentiation. Purified B cells were pretreated with inhibitors, then stimulated with αCD40 + IL-4 (B) or LPS + IL-4 (C) for 96 h to induce switching to IgG1 or LPS (D) for 72 h to induce plasmablast differentiation. Class switching to IgG1 was measured by the 7AAD^−CFSE^loB220^+IgG1^+ cells [(A), upper panels]. Plasmablast percentages were calculated by % 7AAD^−CFSE^loCD138^+B220^lo population [(A), lower]. Supernatant was harvested (E) for IgM ELISA. Concentrations used were 1 nM, 10 nM, 100 nM, 1 µM for IPI-443 and 1, 10, 30, 100 nM for IPI-3063. Low concentrations of IPI-3063 were 0.01 and 0.1 nM (D). AS252424 concentrations were 100 nM, 300 nM, and 1 µM, and GDC-0941 was at 500 nM. Samples were collected by time (*P < 0.05, **P < 0.001, ***P < 0.0001 one-way ANOVA with Newman–Keuls multiple comparison test). […]
We also evaluated plasmablast differentiation and IgM secretion in LPS-stimulated cells (Figure 5D). […]
as §1

Row | SMILES | effect on proliferation (human B cells) | effect on IgG1 switching (mouse primary B cells) | effect on plasmablast differentiation [1] | concentration that significantly reduces proliferation (human B cells) [nM] | concentration that increases percentage of B220+ cells switching to IgG1 (mouse primary B cells) [nM] | concentration that decreases plasmablast differentiation ([1]; % CD138+B220lo) [nM]
1 | O=C1NC(=O)/C(=C/c2ccc(-c3ccc(F)cc3O)o2)S1 [AS-252424, reference compound] | no effect | no effect | no significant effect | – | – | –
2 | CC(C)n1c([C@H](C)Nc2ncnc(N)c2C#N)cc2cccc(-c3ccc(=O)n(C)c3)c2c1=O [IPI-3063] | – | – | – | ≥ 1 | ≥ 1 | ≥ 1
